Consider one compound from US9271487B2, “Protein stabilized antimicrobial composition formed by melt processing” (Kimberly-Clark Worldwide, Inc., priority 2010, dated 2016).

The data set can be described thus: Thymol Concentrations in Extractions (thymol released into liquid, HPLC). The following applies: neat thymol <250 microns, 2 g, 30 mins. It is filed as physicochemical. As to the method: An aliquot of a sample was centrifuged at approximately 5000 rpm until visible settling occurred (approximately 30 minutes). […]. The contents were dissolved and diluted with a 0.1% AA:IPA (50:50) solution to volume. The solution was then filtered with Pall Acrodisc 0.45 micron nylon membrane. The thymol concentration was determined through “High Performance Liquid Chromatography (HPLC) analysis” according to the following conditions:
HPLC Equipment & Conditions
HPLC: Agilent 1100 HPLC system.
Column: Phenomenex Luna NH2 (5 μm, 250 mm×4.6 mm)-ambient
Detector: UV/Vis at 280 nm
Mobile Phases: (75:25) (IPA: 0.1% acetic acid)
Flow Rate: approximately 0.6 mL/min.
Injection Volume: approximately 15 μL

Regarding `Cc1ccc(C(C)C)c(O)c1` [thymol, Thymol], the “% Thymol (wt/wt) in extract solution” value (0 g citric acid, 100 mL deionized water) is 0.084 % (wt/wt) and the “% Thymol (wt/wt) in extract solution” value (1.14 g citric acid, 97 mL deionized water) is 0.081 % (wt/wt).
